Legend:
[1] = neutral or acidic pH; cited from earlier work
[2] = system: methemoglobin reductase (MR); test: Inhibition of methemoglobin reductase (MR) by luteolin; type: biochemical; conditions: assuming about 65 mL blood per kilogram body mass in the pig; no experimental data
Description: An optional embodiment enhances the effective of sodium nitrite by incorporating the flavonoid luteolin into a bait. Luteolin is found in botanical sources including celery, broccoli, green pepper, parsley, thyme, dandelion, perilla, chamomile, carrots, olive oil, peppermint, rosemary, oranges and other citrus, oregano, and certain palm seeds. The mechanism of sodium nitrite toxicity is to oxidize hemoglobin in the blood to methemoglobin, converting the iron atom from the ferrous form to the ferric form. Methemoglobin has a poor ability to transport oxygen to cells. Methemoglobin is naturally present in mammalian blood at 1-2% of total hemoglobin, a level that is ordinarily tempered by the enzyme methemoglobin reductase (MR). […] Because hogs have a poor ability to detoxify methemoglobin build-up, they are inherently more prone to developing high concentrations of methemoglobin upon exposure to sodium nitrite, which can quickly lead to death. In an optional embodiment, this physiology is further exploited by incorporating MR inhibitors into the bait, thus facilitating control of feral hogs while releasing less total nitrite into the environment. Luteolin is a highly-potent, commercially-available, naturally-occurring, tasteless MR inhibitor. Adding small amounts of luteolin to a nitrite-containing bait will reduce a hog's ability to detoxify methemoglobin. […]

[3] = molecular target: methemoglobin reductase (MR); conditions: MR inhibitor; cited from earlier work
feral hogs = test: Vomiting after toxicant baits are consumed; type: in vivo, Sus scrofa; conditions: preliminary results
Description: Another difficulty of using sodium nitrite as a toxicant is that feral hogs can sometimes vomit the baits. The acidic decomposition of sodium nitrite in gastric juices can lead to the release of noxious, gaseous by-products that can induce vomiting. This tendency can be counteracted by incorporating into the bait antiemetic compounds, antacid compounds, or both. Antacids include such compounds as sodium carbonate, sodium bicarbonate, calcium carbonate, magnesium hydroxide, magnesium carbonate, potassium carbonate, amines (e.g. from fish), and potassium bicarbonate. Antacids such as sodium carbonate also help maintain a higher pH level before the bait is consumed. Then after consumption the antacids can help neutralize gastric acid, both inhibiting the breakdown of sodium nitrite in vivo, and also helping to reduce vomiting. […] Anti-emetics can also be employed, for example taste-free ginger extracts containing gingerols. […] Gingerols have the same mechanism of action as drugs such as Zofran (ondansetron), which are prescribed in humans for the treatment of severe, chemotherapy-induced nausea. Other anti-emetics known in the art may also be used.

adult hogs = conditions: cited from earlier work

In the case of O=c1cc(-c2ccc(O)c(O)c2)oc2cc(O)cc(O)c12 [luteolin], the water solubility [1] is given as “poorly soluble”, the “amount of luteolin needed for 50% inhibition of the MR enzyme” value [2] is given as ~2 micrograms per kilogram body mass and the IC50 [3] is given as ~110 nM.
With O=C([O-])[O-].[Na+].[Na+] [sodium carbonate] the “effect on vomiting after toxicant baits are consumed” value (feral hogs) was “effective in reducing vomiting”.
For O=NO [sodium nitrite], the LD90 (adult hogs) is listed as “about 189 mg/kg”.
